This is an account of results in US10087187B2, “Imidazopyridazine derivatives as PI3KB inhibitors” (Janssen Pharmaceutica NV, priority 2014, dated 2018).

For one experiment, the target named is MTOR_h (Homo sapiens (Human), UniProt P42345). Briefly: KINOMEscan enzyme binding assay, MTOR. Conditions: DiscoveRx. Here is the method:
(§1) Enzyme Binding Assays (KINOMEscan®) Kinase enzyme binding affinities of compounds disclosed herein were determined using the KINOMEscan technology performed by DiscoveRx Corporation, San Diego, Calif., USA (www.kinomescan.com).

The next experiment deals with PIK3Cβ_h (Homo sapiens (Human), UniProt P42338). The experiment in a line: KINOMEscan enzyme binding assay, PIK3Cβ. Conditions: DiscoveRx. Here is the method:
(§2) Enzyme Binding Assays (KINOMEscan®) Kinase enzyme binding affinities of compounds disclosed herein were determined using the KINOMEscan technology performed by DiscoveRx Corporation, San Diego, Calif., USA (www.kinomescan.com). Table A reports the obtained Kd values (nM), with the Kd being the inhibitor binding constant: […]

The test system of experiment [1] is Akt phosphorylated at Ser473 in PC-3 cells. The experiment in a line: Cellular assay: phosphorylation of Akt (Ser473) in PC-3 cells, MSD ELISA. The following applies: Homo sapiens, PC-3, 1 h, 60 min incubation with compound, read-out: IC50 pAkt_S473. Format: cell-based. Here is the method:
(§3) Cellular activity of PI3Kβ inhibitors was determined by quantifying the phosphorylation of Akt in PC-3 cells. Akt phosphorylated at Ser473 and Thr308 were measured using an enzyme-linked immunosorbent assay (ELISA; Meso Scale Discovery (MSD), Gaithersburg, Md.) and specific primary antibodies from MSD.
(§4) On day 1, PC3 cells (ATCC # […]) were seeded into PerkinElmer MW96 plates at 25.000 cells per well, in 75 μl complete culture medium (DMEM (Dulbecco's Modified Eagle's Medium) high glucose, AQmedia™, D0819, Sigma-Aldrich) containing 10% heat inactivated FCS (Fetal Bovine Serum) and incubated at 37° C., 5% CO2 during 24 hours. On day 2, compound or DMSO (dimethyl sulfoxide) (0.3%) was added and cells were further incubated for 60 min at 37° C., 5% CO2 in a total volume of 100 μl of medium.
(§5) The phosphoprotein assay was executed according to vendor instructions in the Phospho-Akt (Ser473) Assay Whole Cell Lysate Kit (MSD # K15100D-3) and the Phospho-Akt (Thr308) Assay Whole Cell Lysate Kit (MSD # K151DYD-3) using the lysis, blocking and wash buffer provided.
(§6) Briefly, at the end of the cell treatment period, media were removed by aspiration and adherent cells were lysed in 50 μl ice-cold lysis buffer. MSD plates are supplied pre-coated with capture antibodies for Phospho-Akt (Ser473 and Thr308). After blocking, lysates from tissue culture plates were added and plates were washed. Then, a solution containing the detection antibody (anti-total Akt conjugated with an electrochemiluminescent compound-MSD Sulfo-tag label) was added. The signals were detected using an MSD SECTOR Imager 6000 and are proportional to the phospho-Akt titres.
(§7) Data were processed. The percentage of inhibition was plotted against the log concentration of test compounds, and the sigmoidal log concentration-effect curve of best fit was calculated by nonlinear regression analysis. From these concentration-response curves, the IC50 values were calculated. Five concentrations were used for curve fitting.
(An ELISA detects its analyte on a solid surface through an enzyme-linked reagent.)

In another experiment the target is PIK3Cδ_h (Homo sapiens (Human), UniProt O00329). The experiment in a line: KINOMEscan enzyme binding assay, PIK3Cδ. The following applies: DiscoveRx. Here is the method:
as §2

For another experiment, the target named is PIK3Cγ_h (Homo sapiens (Human), UniProt P48736). Briefly: KINOMEscan enzyme binding assay, PIK3Cγ. Conditions: DiscoveRx. How it is done:
as §1

A further experiment concerns the target PIK3Cα_h (Homo sapiens (Human), UniProt P42336). Briefly: KINOMEscan enzyme binding assay, PIK3Cα. Conditions: DiscoveRx. How it is done:
as §1

Experiment [2] has as its system Akt phosphorylated at Thr308 in PC-3 cells. Briefly: Cellular assay: phosphorylation of Akt (Thr308) in PC-3 cells, MSD ELISA. Format: cell-based. Conditions: Homo sapiens, PC-3, 1 h, 60 min incubation with compound, read-out: IC50 pAkt_Thr308. How it is done: as §3, §4, §5, §6, §7

Each structure is given as a SMILES string. Bounds are passed on as bounds.

PIK3Cδ_h, sequence (O00329 whole entry): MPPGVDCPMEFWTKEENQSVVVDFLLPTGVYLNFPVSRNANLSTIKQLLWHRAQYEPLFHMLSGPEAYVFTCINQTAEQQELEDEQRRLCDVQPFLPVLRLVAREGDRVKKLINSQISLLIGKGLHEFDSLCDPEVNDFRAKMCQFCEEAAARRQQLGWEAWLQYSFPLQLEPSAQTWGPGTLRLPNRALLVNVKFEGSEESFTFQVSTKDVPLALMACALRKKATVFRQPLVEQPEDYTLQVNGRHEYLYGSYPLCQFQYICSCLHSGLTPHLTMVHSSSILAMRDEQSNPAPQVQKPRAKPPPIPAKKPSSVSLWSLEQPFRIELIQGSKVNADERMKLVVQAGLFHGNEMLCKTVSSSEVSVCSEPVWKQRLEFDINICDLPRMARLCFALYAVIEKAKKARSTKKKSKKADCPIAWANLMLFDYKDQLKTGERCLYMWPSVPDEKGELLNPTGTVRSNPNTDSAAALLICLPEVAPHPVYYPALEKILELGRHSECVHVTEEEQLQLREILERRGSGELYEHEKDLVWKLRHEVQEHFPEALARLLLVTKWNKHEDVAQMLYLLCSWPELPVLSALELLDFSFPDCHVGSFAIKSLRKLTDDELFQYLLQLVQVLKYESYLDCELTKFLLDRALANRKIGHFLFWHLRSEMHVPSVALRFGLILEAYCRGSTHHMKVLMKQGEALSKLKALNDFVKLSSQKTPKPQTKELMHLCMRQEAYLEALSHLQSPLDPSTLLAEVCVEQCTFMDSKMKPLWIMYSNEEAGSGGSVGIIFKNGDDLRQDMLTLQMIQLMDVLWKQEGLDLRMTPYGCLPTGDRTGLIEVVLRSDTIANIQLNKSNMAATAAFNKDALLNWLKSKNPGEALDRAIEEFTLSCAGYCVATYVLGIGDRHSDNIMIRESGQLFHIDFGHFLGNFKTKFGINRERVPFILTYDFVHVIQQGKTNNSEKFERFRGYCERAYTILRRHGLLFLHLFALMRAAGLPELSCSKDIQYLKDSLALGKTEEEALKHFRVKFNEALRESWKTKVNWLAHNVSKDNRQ
PIK3Cβ_h, sequence (P42338 whole entry): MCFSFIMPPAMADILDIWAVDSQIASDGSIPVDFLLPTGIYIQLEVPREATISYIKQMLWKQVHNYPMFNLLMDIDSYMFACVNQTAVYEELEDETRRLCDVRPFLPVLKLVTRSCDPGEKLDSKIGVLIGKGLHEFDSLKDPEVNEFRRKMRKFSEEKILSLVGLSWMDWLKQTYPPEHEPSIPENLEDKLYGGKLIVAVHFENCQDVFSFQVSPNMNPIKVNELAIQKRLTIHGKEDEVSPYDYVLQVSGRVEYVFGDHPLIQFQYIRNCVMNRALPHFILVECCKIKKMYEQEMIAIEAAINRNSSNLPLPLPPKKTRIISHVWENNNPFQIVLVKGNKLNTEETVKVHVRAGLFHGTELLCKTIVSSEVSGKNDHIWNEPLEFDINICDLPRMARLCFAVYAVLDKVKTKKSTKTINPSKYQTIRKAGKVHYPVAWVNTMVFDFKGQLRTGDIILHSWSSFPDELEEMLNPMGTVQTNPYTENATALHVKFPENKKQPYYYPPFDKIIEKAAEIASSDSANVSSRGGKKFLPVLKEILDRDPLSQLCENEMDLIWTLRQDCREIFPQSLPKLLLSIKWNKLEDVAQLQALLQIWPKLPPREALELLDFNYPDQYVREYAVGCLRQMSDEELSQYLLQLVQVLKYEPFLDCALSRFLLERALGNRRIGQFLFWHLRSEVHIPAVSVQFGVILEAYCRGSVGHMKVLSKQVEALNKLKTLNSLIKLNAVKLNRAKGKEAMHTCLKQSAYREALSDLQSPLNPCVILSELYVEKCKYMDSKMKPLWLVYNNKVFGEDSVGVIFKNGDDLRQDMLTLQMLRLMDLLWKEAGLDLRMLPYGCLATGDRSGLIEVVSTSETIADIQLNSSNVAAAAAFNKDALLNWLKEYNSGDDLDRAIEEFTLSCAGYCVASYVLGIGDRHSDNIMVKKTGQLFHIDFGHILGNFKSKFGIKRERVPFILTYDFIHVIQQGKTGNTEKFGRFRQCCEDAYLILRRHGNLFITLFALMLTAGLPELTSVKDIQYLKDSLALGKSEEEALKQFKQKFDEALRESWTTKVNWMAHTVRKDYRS
PIK3Cγ_h, sequence (P48736 whole entry): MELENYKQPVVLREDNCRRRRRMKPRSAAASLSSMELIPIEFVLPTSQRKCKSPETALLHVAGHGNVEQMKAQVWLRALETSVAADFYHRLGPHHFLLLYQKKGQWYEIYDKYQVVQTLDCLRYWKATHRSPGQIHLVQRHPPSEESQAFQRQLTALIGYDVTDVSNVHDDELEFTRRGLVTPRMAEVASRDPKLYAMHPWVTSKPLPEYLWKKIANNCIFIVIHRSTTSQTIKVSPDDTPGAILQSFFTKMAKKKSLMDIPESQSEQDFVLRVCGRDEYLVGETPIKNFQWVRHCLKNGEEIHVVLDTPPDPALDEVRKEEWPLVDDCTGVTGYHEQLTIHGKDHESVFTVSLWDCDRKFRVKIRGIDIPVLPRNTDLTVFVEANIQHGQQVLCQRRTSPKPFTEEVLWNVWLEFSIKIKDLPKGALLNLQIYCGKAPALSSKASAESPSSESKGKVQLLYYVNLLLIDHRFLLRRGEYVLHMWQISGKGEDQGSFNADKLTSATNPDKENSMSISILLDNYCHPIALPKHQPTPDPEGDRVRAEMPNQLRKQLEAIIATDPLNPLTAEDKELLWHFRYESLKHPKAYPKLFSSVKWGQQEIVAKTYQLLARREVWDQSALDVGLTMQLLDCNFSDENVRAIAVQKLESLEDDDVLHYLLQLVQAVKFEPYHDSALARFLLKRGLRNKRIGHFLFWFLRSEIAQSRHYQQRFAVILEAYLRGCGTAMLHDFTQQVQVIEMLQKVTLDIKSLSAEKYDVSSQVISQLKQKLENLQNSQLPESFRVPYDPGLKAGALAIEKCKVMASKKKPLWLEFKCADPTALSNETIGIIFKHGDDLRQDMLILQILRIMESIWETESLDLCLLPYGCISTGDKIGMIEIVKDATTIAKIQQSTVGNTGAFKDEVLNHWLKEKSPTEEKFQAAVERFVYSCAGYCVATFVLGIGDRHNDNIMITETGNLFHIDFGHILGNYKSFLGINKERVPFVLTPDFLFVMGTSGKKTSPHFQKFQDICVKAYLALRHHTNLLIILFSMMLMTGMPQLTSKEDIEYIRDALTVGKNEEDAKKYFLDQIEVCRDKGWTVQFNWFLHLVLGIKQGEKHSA
PIK3Cα_h, sequence (P42336 whole entry): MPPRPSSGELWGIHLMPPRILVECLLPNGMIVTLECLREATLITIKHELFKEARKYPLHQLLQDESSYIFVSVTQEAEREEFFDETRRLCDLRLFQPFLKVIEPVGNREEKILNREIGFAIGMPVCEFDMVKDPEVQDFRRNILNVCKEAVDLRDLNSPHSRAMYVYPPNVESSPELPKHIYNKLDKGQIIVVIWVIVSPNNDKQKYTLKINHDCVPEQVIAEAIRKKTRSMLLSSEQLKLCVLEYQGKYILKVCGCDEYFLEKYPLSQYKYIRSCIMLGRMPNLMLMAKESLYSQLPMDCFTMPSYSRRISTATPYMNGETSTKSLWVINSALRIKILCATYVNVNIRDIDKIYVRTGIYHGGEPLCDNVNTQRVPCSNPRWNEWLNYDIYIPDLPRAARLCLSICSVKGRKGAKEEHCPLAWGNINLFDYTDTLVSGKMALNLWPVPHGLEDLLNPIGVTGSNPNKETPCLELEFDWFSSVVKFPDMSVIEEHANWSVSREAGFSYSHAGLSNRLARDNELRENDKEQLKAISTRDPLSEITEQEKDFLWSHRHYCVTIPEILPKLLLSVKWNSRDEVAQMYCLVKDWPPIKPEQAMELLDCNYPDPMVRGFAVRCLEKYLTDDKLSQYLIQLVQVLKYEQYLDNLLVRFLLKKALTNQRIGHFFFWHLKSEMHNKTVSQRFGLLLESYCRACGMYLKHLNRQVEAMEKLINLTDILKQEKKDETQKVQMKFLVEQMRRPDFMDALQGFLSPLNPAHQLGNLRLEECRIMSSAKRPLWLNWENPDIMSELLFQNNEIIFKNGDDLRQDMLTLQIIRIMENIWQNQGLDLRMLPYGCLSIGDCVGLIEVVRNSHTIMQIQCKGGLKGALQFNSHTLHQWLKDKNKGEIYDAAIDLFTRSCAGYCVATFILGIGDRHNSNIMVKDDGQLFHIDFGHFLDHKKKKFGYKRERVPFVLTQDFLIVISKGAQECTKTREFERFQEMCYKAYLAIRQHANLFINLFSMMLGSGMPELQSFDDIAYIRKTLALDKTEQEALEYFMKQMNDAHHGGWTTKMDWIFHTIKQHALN

`Cc1c(Cc2c(CF)nc3c(C(N)=O)cc(N4CCOCC4)nn23)cccc1C(F)(F)F` [Compound 16]: the Kd at MTOR_h was greater than 30.2 µM; at PIK3Cβ_h, 10 nM; at PIK3Cδ_h it was greater than 3310 nM; at PIK3Cγ_h it was greater than 3.31 µM; on PIK3Cα_h, greater than 10 µM. In addition, the IC50 was 123 nM in experiment [1] and 155 nM in experiment [2].
`Cc1c(Cc2c(CCO)nc3c(N)cc(N4CCOCC4)nn23)cccc1C(F)(F)F` [Compound 23]: the dissociation constant Kd on MTOR_h was 20.6 µM; on PIK3Cβ_h, 3 nM; at PIK3Cδ_h, 276 nM; on PIK3Cγ_h it was 23 µM; at PIK3Cα_h, 20.9 µM. The half-inhibitory concentration (IC50) in experiment [1] came out at 64 nM; in experiment [2], 49 nM.
As to `Cc1nc2c(N)cc(N3CCOCC3)nn2c1Nc1cccc(C(F)(F)F)c1C1CCNCC1` [Compound 59], the Kd on MTOR_h is greater than 30.2 µM; at PIK3Cβ_h, 0.1 nM; at PIK3Cδ_h it was 11 nM; on PIK3Cγ_h it was 3.39 µM; on PIK3Cα_h it was 6.46 µM. For the same compound, the IC50 in experiment [1] is 85 nM; in experiment [2] it was roughly 60 nM.
With `Cc1nc2c(N)cc(N3CCOCC3)nn2c1Nc1cccc(C(F)(F)F)c1CN1CC2(CCS2(=O)=O)C1` [Compound 53], the dissociation constant (Kd) at MTOR_h is greater than 30.2 µM; on PIK3Cβ_h, 5 nM; on PIK3Cδ_h, 73 nM; on PIK3Cγ_h, 19.6 µM; at PIK3Cα_h, 10 µM. For the same compound, the half-maximal inhibitory concentration (IC50) in experiment [1] was roughly 176 nM; in experiment [2], roughly 87 nM.
For `CC(=O)OCc1nc2c(N)cc(N3CCOCC3)nn2c1Cc1cccc(C(F)(F)F)c1C` [Compound 61], the Kd is greater than 30.2 µM at MTOR_h; 12 nM at PIK3Cβ_h; 1660 nM on PIK3Cδ_h; greater than 30.2 µM on PIK3Cγ_h; greater than 30.2 µM at PIK3Cα_h. Moreover, the IC50 in experiment [1] worked out at 105 nM; in experiment [2], 151 nM.
Take `Cc1nc2c(-c3ncc[nH]3)cc(N3CCOCC3)nn2c1Nc1cccc(C(F)(F)F)c1C` [Compound 34]: the equilibrium dissociation constant (Kd) is greater than 10 µM on MTOR_h; 3 nM on PIK3Cβ_h; 81 nM on PIK3Cδ_h; 6.92 µM on PIK3Cγ_h; 2.24 µM on PIK3Cα_h. The IC50 in experiment [1] was roughly 56 nM; in experiment [2] it was roughly 32 nM.
For `Cc1c(Cc2c(CO)nc3c(N)cc(N4CCOCC4)nn23)cccc1C(F)(F)F` [Compound 14c], the dissociation constant Kd at MTOR_h is 5.25 µM; at PIK3Cβ_h it was 1.2 nM; on PIK3Cδ_h, 194 nM; on PIK3Cγ_h, greater than 30.2 µM; at PIK3Cα_h, greater than 10 µM. The IC50 in experiment [1] was 50 nM; in experiment [2], roughly 49 nM.
Take `Cc1nc2c(C(N)=O)cc(N3CCOCC3)nn2c1Cc1cccc(Cl)c1C` [Compound 11]: the dissociation constant Kd on MTOR_h stood at 22.4 µM; on PIK3Cβ_h, 21 nM; on PIK3Cδ_h, 955 nM; on PIK3Cγ_h it was 6.92 µM; at PIK3Cα_h it was 2.69 µM. Besides, the IC50 in experiment [1] is roughly 158 nM; in experiment [2] it was 355 nM.
With `Cc1nc2c(C(=O)O)cc(N3CCOCC3)nn2c1Cc1cccc(C(F)(F)F)c1C` [Compound 9], the Kd stood at 12.9 µM on MTOR_h; 1.4 nM on PIK3Cβ_h; 174 nM at PIK3Cδ_h; 5.25 µM on PIK3Cγ_h; 1.35 µM at PIK3Cα_h. The concentration for half-maximal inhibition (IC50) in experiment [1] was 513 nM; in experiment [2], 316 nM.
Consider `Cc1c(Cc2c(CCO)nc3c(-c4c[nH]cn4)cc(N4CCOCC4)nn23)cccc1C(F)(F)F` [Compound 24], for which the Kd was found to be 2.49 µM on MTOR_h; 3 nM at PIK3Cβ_h; 147 nM at PIK3Cδ_h; 3.36 µM on PIK3Cγ_h; 1.11 µM on PIK3Cα_h. Moreover, the 50% inhibitory concentration (IC50) in experiment [1] amounted to 43 nM; in experiment [2] it was 37 nM.
Consider `Cc1nc2c(C(=O)O)cc(N3CCOCC3)nn2c1Nc1cccc(C(F)(F)F)c1C` [Compound 36], for which the dissociation constant (Kd) was determined as 21.7 µM on MTOR_h; 0.9 nM at PIK3Cβ_h; 58 nM at PIK3Cδ_h; 4.05 µM on PIK3Cγ_h; 0.669 µM on PIK3Cα_h. Moreover, the half-inhibitory concentration (IC50) in experiment [1] is roughly 331 nM; in experiment [2], 195 nM.
As for `Cc1nc2c(-c3cnc[nH]3)cc(N3CCOCC3)nn2c1Nc1cccc2c1CNCC2` [Compound 42], the Kd stood at 1.45 µM on MTOR_h; 0.6 nM on PIK3Cβ_h; 5 nM on PIK3Cδ_h; 2.29 µM on PIK3Cγ_h; 0.347 µM on PIK3Cα_h. In addition, the half-maximal inhibitory concentration (IC50) in experiment [1] and in experiment [2] was greater than 513 nM throughout.
On to `Cc1nc2c(C(N)=O)cc(N3CCOCC3)nn2c1Nc1ccccc1N1CCOCC1` [Compound 87], for which the Kd on MTOR_h amounted to 5.89 µM; at PIK3Cβ_h, 43 nM; at PIK3Cδ_h, 219 nM; at PIK3Cγ_h, 3.63 µM; at PIK3Cα_h, 1.2 µM. Further, the figures for the IC50 in experiment [1] and in experiment [2] were 257 nM and roughly 224 nM, respectively.
For `Cc1nc2c(N)cc(N3CCOCC3)nn2c1Nc1cccc(C(F)(F)F)c1CN1CCOCC1` [Compound 38], the Kd on MTOR_h was found to be 9.37 µM; on PIK3Cβ_h it was 4 nM; at PIK3Cδ_h, 15 nM; at PIK3Cγ_h, 12.9 µM; at PIK3Cα_h, 4.05 µM. Also, the results for the 50% inhibitory concentration (IC50) in experiment [1] and in experiment [2] were 18 nM and 10 nM, respectively.
With `Cc1nc2c(-c3cnc[nH]3)cc(N3CCOCC3)nn2c1Nc1cccc(C(F)(F)F)c1CN1CCOCC1` [Compound 41], the dissociation constant Kd on MTOR_h came to 1.7 µM; at PIK3Cβ_h it was 7 nM; on PIK3Cδ_h, 12 nM; on PIK3Cγ_h, 0.955 µM; on PIK3Cα_h, 0.275 µM. Also, the values for the half-maximal inhibitory concentration (IC50) in experiment [1] and in experiment [2] were roughly 37 nM and 22 nM, respectively.
`Cc1c(Cc2c(CO)nc3c(-c4ccn[nH]4)cc(N4CCOCC4)nn23)cccc1C(F)(F)F` [Compound 21]: the dissociation constant Kd at MTOR_h worked out at 0.178 µM; on PIK3Cβ_h, 9 nM; at PIK3Cδ_h it was 240 nM; at PIK3Cγ_h, 0.617 µM; on PIK3Cα_h, 1.58 µM. The IC50 in experiment [1] came out at 148 nM; in experiment [2], 50 nM.
Consider `Cc1nc2c(-c3ncc[nH]3)cc(N3CCOCC3)nn2c1Cc1cccc(C(F)(F)F)c1C` [Compound 7], for which the equilibrium dissociation constant (Kd) at MTOR_h was greater than 10 µM; at PIK3Cβ_h, 15 nM; at PIK3Cδ_h, 525 nM; on PIK3Cγ_h, greater than 30.2 µM; at PIK3Cα_h, greater than 3.31 µM. In addition, the IC50 turned out to be 269 nM in experiment [1] and 135 nM in experiment [2].
On to `Nc1cc(N2CCOCC2)nn2c(Cc3cccc(F)c3C3CCN(CCO)CC3)c(CO)nc12` [Compound 108], for which the Kd is 18.7 µM at MTOR_h; 14 nM at PIK3Cβ_h; 376 nM at PIK3Cδ_h; 13.6 µM on PIK3Cγ_h; 21.4 µM at PIK3Cα_h. Also, the IC50 in experiment [1] and in experiment [2] was greater than 513 nM throughout.
On to `CC(CO)NCc1c(F)cccc1Cc1c(CO)nc2c(N)cc(N3CCOCC3)nn12` (stereo not drawn) [Compound 102], for which the Kd on MTOR_h is greater than 30.2 µM; on PIK3Cβ_h, 141 nM; at PIK3Cδ_h it was 1510 nM; on PIK3Cγ_h, greater than 30.2 µM; at PIK3Cα_h it was greater than 30.2 µM. Further, the 50% inhibitory concentration (IC50) in experiment [1] and in experiment [2] was greater than 513 nM each time.
Regarding `Cc1nc2c(N)cc(N3CCOCC3)nn2c1Nc1cccc(F)c1C` [Compound 44], the Kd was found to be 5.37 µM on MTOR_h; 1.5 nM at PIK3Cβ_h; 105 nM on PIK3Cδ_h; 14.8 µM on PIK3Cγ_h; 9.33 µM on PIK3Cα_h. Further, the concentration for half-maximal inhibition (IC50) in experiment [1] was 34 nM; in experiment [2], roughly 11 nM.
For the compound `Cc1nc2c(N)cc(N3CCOCC3)nn2c1Nc1cccc(C(F)(F)F)c1CN1CCN(C)CC1` [Compound 58], the equilibrium dissociation constant (Kd) at MTOR_h was 21.4 µM; on PIK3Cβ_h it was 0.4 nM; on PIK3Cδ_h it was 20 nM; at PIK3Cγ_h, 12.3 µM; at PIK3Cα_h, 4.27 µM. In addition, the IC50 in experiment [1] came out at 21 nM; in experiment [2], 17 nM.

In general, Kd refers to a measure of binding affinity in units of concentration. Broadly, the IC50 is the concentration needed to halve the response being measured.
